Laboratory results as given in patent US20090088412A1, “COMPOSITION FOR TREATING CANCER CELLS AND PREPARATION METHOD THEREOF” (KAOHSIUNG MEDICAL UNIVERSITY, priority 2007, published 2009).
≈ marks a conversion by molar mass, not a printed value.

How the values were obtained:
[1] = test system: Hep G2; experiment: MTT cytotoxicity test, Hep G2; type: cell-based, human; conditions: 72 hours; for IC50 Hep G2: liver cancer cell line
Method: (§1) The bioactivities of the 25 new withanolide compounds of the present invention are further studied. The bioactivities are measured by examining cytotoxicity tests with 5 human cancer cell lines, including MCF-7 and MDA-MB-231 (which are the breast cancer cell lines), Hep G2 and Hep 3B (which are the liver cancer cell line), and A549 (which is lung cancer cell line). In addition, a normal human lung cell line (MRC-5) is served as the control group. All human cancer cell lines come from the American Type Culture Collection. The respective cell lines are cultured in RPMI-1640 medium with 10% (v/v) fetal calf serum, 100 U/ml penicillin and 100 µg/ml streptomycin, and incubated at 37° C. in 5% CO2 atmosphere.
(§2) In the present invention, the cytotoxicity tests are performed with MTT (3-(4,5-dimethyl-thiazol-2-yl)-2,5-diphenyl tetrazolium bromide) method. The five cancer cell lines and the normal cell line (MRC-5) are firstly incubated in a 96-well culture dish with concentrations of 5,000˜10,000 cells/well. In Day 2, the respective incubated cells are added with the withanolide compounds of the present invention and Doxorubicin and are incubated for additional 72 hours. Afterwards, the incubated cells are examined with the MTT method including steps of dissolving the incubated cells in DMSO, and determining the absorbance of each cell line to each compound by a microplate reader in 550 nm to evaluate the cytotoxicity of each compound to each cell line. […] The IC50 represents the concentration of the compound that is required for 50% inhibition of the cell growth, and Doxorubicin serves as the positive control group.

[2] = test system: MRC-5; experiment: MTT cytotoxicity test, normal lung cell line MRC-5; type: cell-based; conditions: 72 hours; for IC50 MRC-5: normal human lung cell line
Method: as §1, §2

[3] = test system: MCF-7; experiment: MTT cytotoxicity test, MCF-7; type: cell-based, human; conditions: 72 hours; for IC50 MCF-7: breast cancer cell line
Method: as §1, §2

[4] = test system: MDA-MB-231; experiment: MTT cytotoxicity test, MDA-MB-231; type: cell-based, human; conditions: 72 hours; for IC50 MDA-MB-231: breast cancer cell line
Method: as §1, §2

[5] = test system: A-549; experiment: MTT cytotoxicity test, A-549; type: cell-based, human; conditions: 72 hours; for IC50 A-549: lung cancer cell line
Method: as §1, §2

[6] = test system: Hep 3B; experiment: MTT cytotoxicity test, Hep 3B; type: cell-based, human; conditions: liver cancer cell line, 72 hours
Method: as §1, §2

Molecule | IC50 ([1]; Homo sapiens, HepG2, liver cancer cell line) [µg/mL] | IC50 ([2]; MRC5, normal human lung cell line) [µg/mL] | IC50 ([3]; Homo sapiens, MCF7, breast cancer cell line) [µg/mL] | IC50 ([4]; Homo sapiens, MDA-MB-231, breast cancer cell line) [µg/mL] | IC50 ([5]; Homo sapiens, A549, lung cancer cell line) [µg/mL] | IC50 ([6]; Homo sapiens, Hep3B) [µg/mL] | IC50 Hep G2 [1] [µg/mL] | IC50 MRC-5 [2] [µg/mL] | IC50 MCF-7 [3] [µg/mL] | IC50 MDA-MB-231 [4] [µg/mL] | IC50 A-549 [5] [µg/mL] | IC50 Hep 3B [6] [µg/mL]
COc1cccc2c1C(=O)c1c(O)c3c(c(O)c1C2=O)C[C@@](O)(C(=O)CO)C[C@@H]3O[C@H]1C[C@H](N)[C@H](O)[C@H](C)O1 [doxorubicin, reference compound] | 0.46 (≈ 0.846 µM) | 0.77 (≈ 1.42 µM) | 0.34 (≈ 0.626 µM) | 0.19 (≈ 0.35 µM) | 0.42 (≈ 0.773 µM) | 0.45 (≈ 0.828 µM) |  |  |  |  |  | 
CC1=C(CO)C(=O)O[C@@H]([C@@H](C)[C@H]2CC[C@H]3[C@@H]4C[C@H]5O[C@]56[C@@H](O)C=CC(=O)[C@]6(C)[C@H]4CC[C@]23C)C1 [withaferin A, reference compound] |  |  |  |  |  |  | 0.06 (≈ 0.127 µM) | 0.07 (≈ 0.149 µM) | 0.05 (≈ 0.106 µM) | 0.02 (≈ 0.0425 µM) | 0.02 (≈ 0.0425 µM) | 0.06 (≈ 0.127 µM)
Tubocapsenolide D [Compound 4] |  |  |  |  |  |  | 4.57 | 4.24 | 6.77 | 6.55 | 4.24 | 2.30
